Laboratory results as given in the CheMixHub viscosity set.

Assay: xn = mol fraction of the nth substance listed

Cc1ccccc1O + CC(=O)O
viscosity [mPa·s], 101 kPa
Details | x2 = 0.167 | x2 = 0.3109 | x2 = 0.4361 | x2 = 0.5461 | x2 = 0.6434 | x2 = 0.7302 | x2 = 0.8081 | x2 = 0.8783 | x2 = 0.942
298.15 K | 5.871 | 4.718 | 3.853 | 3.149 | 2.615 | 2.165 | 1.808 | 1.529 | 1.307
308.15 K | 4.539 | 3.776 | 3.151 | 2.619 | 2.204 | 1.86 | 1.595 | 1.328 | 1.139
318.15 K | 3.157 | 2.82 | 2.465 | 2.137 | 1.812 | 1.542 | 1.322 | 1.135 | 0.9519

C=CC(=O)OC + CC#N
viscosity [mPa·s], 100 kPa
Details | 293.15 K | 298.15 K | 303.15 K | 308.15 K | 313.15 K | 318.15 K
x2 = 0.0591 | 0.4934 | 0.4511 | 0.4118 | 0.3786 | 0.3488 | 0.3221
x2 = 0.1171 | 0.4832 | 0.4422 | 0.4042 | 0.3721 | 0.3431 | 0.3171
x2 = 0.17 | 0.474 | 0.4343 | 0.3976 | 0.3664 | 0.3383 | 0.313
x2 = 0.2356 | 0.4627 | 0.4247 | 0.3896 | 0.3597 | 0.3327 | 0.3083
x2 = 0.2977 | 0.4524 | 0.416 | 0.3824 | 0.3537 | 0.3278 | 0.3043
x2 = 0.3615 | 0.4422 | 0.4074 | 0.3754 | 0.348 | 0.3232 | 0.3007
x2 = 0.4343 | 0.431 | 0.398 | 0.3679 | 0.3419 | 0.3185 | 0.2971
x2 = 0.5014 | 0.4212 | 0.3899 | 0.3614 | 0.3368 | 0.3146 | 0.2943
x2 = 0.5738 | 0.4112 | 0.3818 | 0.3551 | 0.332 | 0.311 | 0.2918
x2 = 0.6537 | 0.4009 | 0.3736 | 0.349 | 0.3274 | 0.3078 | 0.2897
x2 = 0.7623 | 0.3881 | 0.3635 | 0.3417 | 0.3223 | 0.3046 | 0.2883
x2 = 0.8155 | 0.3823 | 0.3592 | 0.3387 | 0.3204 | 0.3037 | 0.2882
x2 = 0.9074 | 0.3729 | 0.3523 | 0.3342 | 0.3179 | 0.303 | 0.2889

C=CC(=O)OC + CCCCCCC
viscosity [mPa·s], 100 kPa
Details | x1 = 0.1065 | x1 = 0.2053 | x1 = 0.3084 | x1 = 0.4061 | x1 = 0.5019 | x1 = 0.6048 | x1 = 0.703 | x1 = 0.8014 | x1 = 0.9456
303.15 K | 0.367 | 0.361 | 0.36 | 0.362 | 0.367 | 0.375 | 0.387 | 0.402 | 0.426
308.15 K | 0.337 | 0.333 | 0.332 | 0.336 | 0.343 | 0.353 | 0.365 | 0.381 | 0.406
313.15 K | 0.329 | 0.326 | 0.325 | 0.326 | 0.332 | 0.341 | 0.352 | 0.366 | 0.388

CCOC(=O)CC + c1ccccc1
viscosity [mPa·s], 101.3 kPa
Details | 308.15 K | 318.15 K
x1 = 0.0521 | 0.53 | 0.47
x1 = 0.0984 | 0.525 | 0.47
x1 = 0.2018 | 0.513 | 0.469
x1 = 0.3029 | 0.503 | 0.468
x1 = 0.4009 | 0.495 | 0.465
x1 = 0.4991 | 0.487 | 0.462
x1 = 0.5982 | 0.481 | 0.459
x1 = 0.7114 | 0.475 | 0.453
x1 = 0.8042 | 0.472 | 0.448
x1 = 0.8989 | 0.469 | 0.443
x1 = 0.92 | 0.468 | 0.441

CC(C)CO + O
Details | viscosity [mPa·s]
293.15 K, 101.33 kPa, x1 = 0.0049 | 1.124
293.15 K, 101.33 kPa, x1 = 0.01 | 1.222
293.15 K, 101.33 kPa, x1 = 0.015 | 1.332
293.15 K, 101.33 kPa, x1 = 0.021 | 1.453
298 K, 101 kPa, x2 = 0.2 | 3.148
298 K, 101 kPa, x2 = 0.4 | 3.209
299 K, 101 kPa, x2 = 0.1 | 3.13
299 K, 101 kPa, x2 = 0.45 | 3.156
300 K, 101 kPa, x2 = 0.3 | 2.95
303 K, 101 kPa, x1 = 0.01 | 0.931
303 K, 101 kPa, x2 = 0.1 | 2.753
303 K, 101 kPa, x2 = 0.2 | 2.679
303 K, 101 kPa, x2 = 0.3 | 2.676
303 K, 101 kPa, x2 = 0.4 | 2.719
303 K, 101 kPa, x2 = 0.45 | 2.761
303.15 K, 101.33 kPa, x1 = 0.0049 | 0.899
303.15 K, 101.33 kPa, x1 = 0.01 | 0.967
303.15 K, 101.33 kPa, x1 = 0.015 | 1.04
303.15 K, 101.33 kPa, x1 = 0.021 | 1.119
313 K, 101 kPa, x1 = 0.01 | 0.7483
313 K, 101 kPa, x2 = 0.1 | 2.041
313 K, 101 kPa, x2 = 0.2 | 1.985
313 K, 101 kPa, x2 = 0.3 | 1.976
313 K, 101 kPa, x2 = 0.4 | 2.002
313 K, 101 kPa, x2 = 0.45 | 2.025
313.15 K, 101.33 kPa, x1 = 0.0049 | 0.721
313.15 K, 101.33 kPa, x1 = 0.01 | 0.767
313.15 K, 101.33 kPa, x1 = 0.015 | 0.815
323 K, 101 kPa, x1 = 0.01 | 0.6161
323 K, 101 kPa, x2 = 0.1 | 1.55
323 K, 101 kPa, x2 = 0.2 | 1.51
323 K, 101 kPa, x2 = 0.3 | 1.502
323 K, 101 kPa, x2 = 0.4 | 1.517
323 K, 101 kPa, x2 = 0.45 | 1.531
323.15 K, 101.33 kPa, x1 = 0.0049 | 0.604
323.15 K, 101.33 kPa, x1 = 0.01 | 0.642
323.15 K, 101.33 kPa, x1 = 0.015 | 0.675

C=CC(=O)OC + CCCCCCCO
viscosity [mPa·s], 101.3 kPa
Details | x1 = 0.0803 | x1 = 0.219 | x1 = 0.2841 | x1 = 0.4009 | x1 = 0.5184 | x1 = 0.7017 | x1 = 0.7824 | x1 = 0.8604 | x1 = 0.9347 | x1 = 0.9686
298.15 K | 4.278 | 2.912 | 2.304 | 1.632 | 1.218 | 0.783 | 0.653 | 0.563 | 0.493 | 0.467
308.15 K | 3.262 | 2.282 | 1.857 | 1.348 | 1.032 | 0.677 | 0.568 | 0.49 | 0.428 | 0.411
